Source: article PMC3927474, “Whole body synthesis rates of DHA from α-linolenic acid are greater than brain DHA accretion and uptake rates in adult rats” (Journal of Lipid Research, 2014)
Several values for one entry are separate records, joined by “and”; a condition that tells them apart may be missing. Equal entries are not always repeated. Marks after values point to notes of the source that are not given here.

Tests used:
Assay type in all cases: in vivo, rat
[1] = Balance study: n-3 and n-6 PUFA balance (intake, excretion, accretion, metabolic consumption); conditions: for Fecal excretion: mean % excretion applied to intake; for Fecal excretion / Metabolic consumption of dietary PUFAs: DHA group: refers to DHA; for Dietary PUFA excreted in the feces: 24 h feces at 8 weeks postweaning, percentage of intake; for Metabolic consumption of dietary PUFAs: n-3 PUFA, Eq. 1, 15 weeks
Experimental: All procedures were performed in accordance with the policies set out by the Canadian Council on Animal Care and were approved by the Animal Ethics Committee at the University of Toronto. Three Long Evans dams each with 18-day-old male Long Evans pups were ordered from Charles River Laboratories (St. Constant, QC, Canada). Pups were nonlittermates and each dam was housed with pups. Upon arrival, dams were allocated to one of the three diets (described below). When the pups were 21 days old, two pups from each dam were euthanized by high-energy head-focused microwave fixation (4.5 kW for 0.9 s). Brains were removed immediately and stored at -80°C until lipid analysis. Bodies were also stored at -80°C immediately after euthanization until analysis. The brains and bodies of these pups were used to determine the PUFA content of the rats at weaning (i.e., baseline PUFA content). […] For the balance study, the rats were weighed, food intake was determined, and uneaten food was replaced with fresh food on a weekly basis. Rats were euthanized by CO2 asphyxiation. Brains were removed and dissected sagittally. Carcasses and one half brain per rat were stored immediately at -80°C (to be later analyzed for lipid content). […] For the steady-state infusion study and the brain DHA uptake study, a jugular vein catheter was surgically implanted into the rats. […] Carcasses were thawed overnight in a refrigerator at 3°C, cut into pieces, and passed through a #12 hand grinder. After the whole body had passed through the grinder once, the homogenate was mixed together by hand and passed at least one more time through the grinder until the mixture was sufficiently homogeneous. Due to the small size of the pups all of the 21-day-old pup bodies were passed through the grinder together. […] New chloroform was added to the remaining aqueous phase, the mixture was once again centrifuged, and the chloroform layer was extracted and added to the previously extracted chloroform layer. […] One hemisphere was thawed briefly and dissected over ice to separate the brainstem, cerebellum, cortex, hippocampus, striatum, and the rest of the brain. […] The homogenizer was then washed with methanol, which was then transferred to the test tube containing the homogenized brain and KCl. […] The chloroform layer was extracted and new chloroform was added to the aqueous phase. […] At 8 weeks postweaning all the feces produced by a rat in 24 h were collected. […] Mean PUFA excretion (percentage of intake) was determined and applied to all animals to determine PUFA excretion. […] Nu-Check Prep, Elysian, MN) was added to the TLE. […] Samples were injected in […] mode. The injector and detector ports were set at 250°C. […] The carrier gas was helium, set to a constant flow rate of 0.7 ml/min. Peaks were identified by retention times of authentic FAME standards (Nu-Chek Prep). […] The concentrations were expressed on a per gram basis then multiplied by total weight of the tissue to determine the total amount of each fatty acid in the tissue.

[2] = Body weight and food intake, balance study; conditions: 15 wk diet
Experimental: The remaining pups were weaned, singly housed, continued on the diet of their respective dam for 15 weeks, and were allocated to either the balance study (n = 11), the steady-state infusion study (n = 4), or the brain DHA uptake study (n = 3). For the balance study, the rats were weighed, food intake was determined, and uneaten food was replaced with fresh food on a weekly basis. Rats were euthanized by CO2 asphyxiation. Brains were removed and dissected sagittally. Carcasses and one half brain per rat were stored immediately at −80°C (to be later analyzed for lipid content). The other half brain was flash-frozen with 2-methylbutane on dry ice, and then stored at −80°C until analyzed for mRNA expression. The PUFA content in the brains and bodies of these rats after the 15 week feeding period was compared with the baseline PUFA content (described above) to determine PUFA accretion (equation 1, described below). For the steady-state infusion study and the brain DHA uptake study, a jugular vein catheter was surgically implanted into the rats. After allowing a 24 h recovery, rats were infused with ^2H14-ALA or ^14C-DHA, respectively (described below). The ^2H14-ALA infusion was used to determine DHA synthesis rates following a previously published method ([24]) and the ^14C-DHA infusion was utilized to measure the brain DHA uptake rate by following previously published methods ([26]).

tyrosine hydroxylase = assay: Brain gene expression (TLDA qPCR); conditions: 15 wk diet; control diet = 1
Experimental: RNA was extracted from the flash-frozen half brains of the 15 week postweaning rats. The brain was briefly thawed and dissected to isolate the brainstem, cerebellum, cortex, hippocampus, striatum, and the rest of the brain. RNA was extracted from the brain regions using Trizol reagent (Ambion; Life Technologies, Burlington, ON, Canada) according to the manufacturer's protocol. […] Chloroform was added to the Trizol reagent at a ratio of 1:5 (chloroform:Trizol reagent) and the solution was mixed and incubated at room temperature. The solution was then centrifuged at 12,000 g for 15 min at 4°C. […] The samples were then centrifuged at 12,000 g for 10 min at 4°C to precipitate the RNA pellet. […] The pellet was allowed to air dry, and was then dissolved in RNase-free water. A Nanodrop 1000 (NanoDrop Technologies Inc., Wilmington, DE) was used to determine the concentration and purity of each sample by measuring absorbance at 260 and 280 nm. Each sample was aliquoted to make 1 μg of RNA per 10 μl of sample and stored at -80°C. A high-capacity cDNA reverse transcription kit (Applied Biosystems, Burlington, ON, Canada) was used to reverse transcribe 1 μg of RNA according to the manufacturer's instructions. Newly synthesized cDNA was stored at -20°C until the following day when it was loaded onto TaqMan low density array (TLDA) plates. Quantitative real-time PCR was performed using TLDA (Applied Biosystems) on the 7900HT real-time PCR system (Applied Biosystems). cDNA (50 ng) was diluted with water to make a volume of 50 μl and mixed with 50 μl of TaqMan Universal PCR Master Mix (Applied Biosystems). The mixture was then loaded onto a customized preconfigured 384-well TLDA plate according to the manufacturer's protocol. TaqMan gene expression assays were used to assess 21 genes that were previously reported to be differentially expressed with n-3 deprivation. […] All genes were normalized to phosphoglycerate kinase 1. Similar results were found when normalizing to β-actin or 18S rRNA.

[3] = average over 15 weeks, listed as DHA diet

SMILES | Metabolic consumption of dietary PUFA (n-6) ([1]; 15 weeks) | Fecal excretion ([1]; 15 weeks) | Body Content of n-6 PUFA, Day 105 ([1]; 15 wk diet) | Brain Content of n-6 PUFA, Day 105 ([1]; 15 wk diet) | Total Accretion: 18:3n-6 ([1]; 15 wk diet) | Total Accretion: 20:2n-6 ([1]; 15 wk diet) | Total Accretion: 22:4n-6 ([1]; 15 wk diet) | Total Accretion: ARA ([1]; 15 wk diet) | Total Accretion: LNA ([1]; 15 wk diet) | Total Accretion: Total n-6 PUFA ([1]; 15 wk diet) | Dietary PUFA excreted in the feces [1] | Brain DHA accretion rate (balance study) ([1]; average over 15 weeks) | Brain Content of n-6 PUFA, Day 0 ([1]; baseline) | Total accretion: DHA ([1]; body + brain, 15 wk diet) | Metabolic consumption of dietary PUFAs [1] | Mean body weight at 15 weeks [2] | Brainstem gene expression: TH (tyrosine hydroxylase) | Cerebellum gene expression: TH (tyrosine hydroxylase) | Cortex gene expression: TH (tyrosine hydroxylase) | Hippocampus gene expression: TH (tyrosine hydroxylase) | further results
CC/C=C\C/C=C\C/C=C\C/C=C\C/C=C\C/C=C\CCC(=O)O [DHA, Docosahexaenoic acid] | 157517 µmol | 10 ± 0.4 µmol | 32391 µmol | 17 µmol | 41 µmol | 167 µmol | 97 µmol | 1539 µmol | 28810 µmol | 30720 µmol | 0.07 ± 0.02% | 0.042 ± 0.007 µmol/day | 14 µmol | 1119 ± 62^c μmol | 15783 ± 548^b,** μmol | 724 ± 18 g | 0.98 RQ | 1.23 RQ | 1.11 RQ | 1.01 RQ | Brain DHA accretion rate (balance study) [1, 3]: 0.042 µmol/day; DHA uptake and accretion rate into the brain (balance study) [1, 3]: 42 nmol/day and 42 ± 7 nmol/day; Rest of brain gene expression: TH (tyrosine hydroxylase): 1.18 RQ; Striatum gene expression: TH (tyrosine hydroxylase): 1.19 RQ
CC/C=C\C/C=C\C/C=C\CCCCCCCC(=O)O [ALA, α-linolenic acid] | 147161 µmol | 57 ± 2 µmol | 29170 µmol | 20 µmol | 52 µmol | 169 µmol | 138 µmol | 1806 µmol | 25157 µmol | 27489 µmol | 0.27 ± 0.002% | 0.032 ± 0.005 µmol/day | 14 µmol | 440 ± 39^b μmol | 19037 ± 617^b μmol | 673 ± 25 g | 1.24 RQ | 1.60 RQ | 1.56 RQ | 1.15 RQ | Fecal Excretion of LNA ([1]; 15 weeks): 877 µmol; Body content of n-3 PUFAs, Day 105 ([1]; 15 wk diet, n = 11): 2352 ± 166^b μmol; Brain content of n-3 PUFAs, Day 105 ([1]; 15 wk diet, n = 11): 14 ± 2^b μmol; Total DHA synthesis-accretion rate (balance study) ([1]; average over 15 weeks, body + brain, listed as ALA diet): 4.2 µmol/day and 4.2 ± 0.4 µmol/day; DHA synthesis and accretion in ALA-fed rats relative to brain DHA accretion of DHA-fed rats ([1]; balance study): 100 fold; Dietary ALA metabolically consumed ([1]; balance study): approximately 90%; Body Content of n-6 PUFA, Day 0 ([1]; baseline): 1491 µmol; Body content of n-3 PUFAs, Day 0 ([1]; baseline, 21-day-old pups, n = 2): 139 ± 3 µmol; Brain content of n-3 PUFAs, Day 0 ([1]; baseline, n = 2): 10 ± 0.6 µmol; Total accretion: 20:3n-3 ([1]; body + brain, 15 wk diet): 110 ± 11^ab μmol; Total accretion: ALA ([1]; body + brain, 15 wk diet): 1500 ± 100^b μmol; Total accretion: DPAn-3 ([1]; body + brain, 15 wk diet): 90 ± 7^b μmol; Total accretion: EPA ([1]; body + brain, 15 wk diet): 70 ± 10^b μmol; Total accretion: Total n-3 PUFA ([1]; body + brain, 15 wk diet): 2209 ± 107^b μmol; Rest of brain gene expression: TH (tyrosine hydroxylase): 1.09 RQ; Striatum gene expression: TH (tyrosine hydroxylase): 1.12 RQ
